# Assay results as given in patent US12465637B2, “Compositions and methods for modulation of antibody activity” (Institute for Cancer Research, priority 2019, dated 2025).
# Key:
# CTLA-4 = CTLA-4 sandwich ELISA (BioLegend); assay type: binding; conditions: compared with ipilimumab
# Protocol: Two anti-CTLA-4 scFv constructs (3GSWT with -GG(GGSGG)3GG- linker (SEQ ID NO: 6) and 5GSWT with -GG(GGSGG)5GG- linker (SEQ ID NO: 7)) were generated based on ipilimumab. The activity of each scFv antibody construct was compared via a sandwich ELISA assay (BioLegend; San Diego, CA), according to the manufacturer's instruction.
# The triple mutation (VLF98G/VHV37A/VHW110G) was introduced into the 5GSWT scFv construct. The ability of JK43 to rescue the triple mutant was then tested. Briefly, the ability of the wild-type (5GSWT scFv construct) and triple mutant constructs to bind CTLA-4 was tested in the presence or absence of JK43 using the above sandwich ELISA assay, according to the manufacturer's instructions.
# [1] = tested on: 4D5Flu triple mutant (VLF98G/VHV37A/VHW110G); test: Fluorescein fluorescence quenching, effector (JK43/analog) rescue of triple mutant; assay type: biochemical; conditions: effector titration; 500 nM triple mutant, 10 nM fluorescein, 1% DMSO
# Protocol: For the protein titration experiment, samples were prepared by titrating varying concentrations of protein (WT or triple mutant) into PBS containing a final concentration of 10 nM fluorescein and 1% DMSO, with or without 100 μM JK43. For the JK43 titration experiment, samples were prepared by titrating varying concentrations of JK43 into PBS with a final concentration of 10 nM fluorescein, 1% DMSO and 500 nM protein (WT or triple mutant). For the SAR experiment, samples were prepared by adding 10 μM of JK43 analogs into PBS with a final concentration of 10 nM fluorescein, 1% DMSO and 500 nM triple mutant.
# Fluorescence quenching experiments were carried out in a SpectraMax® i3x Multi-Mode Microplate Reader (Molecular Devices), using a Costar 96-well black round bottom plates, 200 μL reaction volume, excitation wavelength of 475 nm and emission wavelength of 525 nm, at a temperature of 27° C. Blank measurements containing all sample components except fluorescein were subtracted to remove background. All samples were normalized to a control of fluorescein alone (0% quenching) and buffer alone (100% quenching).
Molecule,Binding of CTLA-4 (FIG. 6B) (CTLA-4),EC50 [1] [µM]
3GSWT: anti-CTLA-4 scFv based on ipilimumab with -GG(GGSGG)3GG- linker (SEQ ID NO: 22),"readily bind CTLA-4, albeit slightly less potently than ipilimumab",–
"c1ccc(COc2ccc3cc[nH]c3c2)cc1 [JK25, 6-phenylmethoxy-1H-indole]",–,25
"c1ccc(COc2ccc3cn[nH]c3c2)cc1 [JK43, 6-phenylmethoxy-1H-indazole]",–,16
